# Patent US20200190073A1, “SUBSTITUTED SUCCINIMIDE DERIVATIVES AS PESTICIDES” (BASF SE, priority 2017, published 2020)
# Like-named read-outs stand apart in the source and are kept apart here.
# Columns and labels:
# Type in all cases: in vivo
# [1] = test system: Orchid Thrips (Dichromothrips Corbetti); assay: CE.3 Orchid thrips, comparative test; details: 96 h, read-out: % mortality in comparison to untreated controls
# Experimental: (§1) The tables show % mortality in comparison to untreated controls.
# CE.3 Orchid Thrips (Dichromothrips Corbetti)
# Dichromothrips corbetti adults used for bioassay were obtained from a colony maintained continuously under laboratory conditions. For testing purposes, the test compound was diluted to a concentration of 300 ppm (wt compound: vol diluent) in a 1:1 mixture of acetone:water (vol:vol), plus 0.01% vol/vol Kinetic® surfactant.
# Thrips potency of each compound was evaluated by using a floral-immersion technique. Plastic petri dishes were used as test arenas. All petals of individual, intact orchid flowers were dipped into treatment solution and allowed to dry. Treated flowers were placed into individual petri dishes along with 10-15 adult thrips. The petri dishes were then covered with lids. All test arenas were held under continuous light and a temperature of about 280C for duration of the assay. After 4 days, the numbers of live thrips were counted on each flower, and along inner walls of each petri dish. The level of thrips mortality was extrapolated from pre-treatment thrips numbers.
# [2] = test system: Silverleaf Whitefly (Bemisia argentifolii); assay: CE.4 Silverleaf whitefly, comparative test; details: 72 h, read-out: % mortality in comparison to untreated controls
# Experimental: as §1
# CE.4 Silverleaf Whitefly (Bemisia argentifolii)
# The active compounds were formulated in 50:50 acetone:water (vol:vol) and 100 ppm Kinetica™ surfactant.
# Selected cotton plants were grown to the cotyledon state (one plant per pot). The cotyledons were dipped into the test solution to provide complete coverage of the foliage and placed in a well-vented area to dry. Each pot with treated seedling was placed in a plastic cup and 10 to 12 whitefly adults (approximately 3-5 day old) were introduced. The insects were collected using an aspirator and a Tygon® tubing connected to a barrier pipette tip. The tip, containing the collected insects, was then gently inserted into the soil containing the treated plant, allowing insects to crawl out of the tip to reach the foliage for feeding. The cups were covered with a reusable screened lid. Test plants were maintained in the holding room at about 25° C. and about 20-40% relative humidity for 3 days avoiding direct exposure to the fluorescent light (24 hour photoperiod) to prevent trapping of heat inside the cup. Mortality was assessed 3 days after treatment of the plants.
# [3] = test system: Rice Brown Plant Hopper (Nilaparvata lugens); assay: CE.2 Rice brown plant hopper, comparative test; details: read-out: % mortality in comparison to untreated controls
# Experimental: as §1
# CE.2 Rice Brown Plant Hopper (Nilaparvata lugens)
# (§2) Rice seedlings were cleaned and washed 24 hours before spraying. The active compounds were formulated in 50:50 acetone:water (vol:vol) and 0.1% vol/vol surfactant (EL 620) was added. Potted rice seedlings were sprayed with 5 ml test solution, air dried, placed in cages and inoculated with 10 adults. Treated rice plants were kept at about 28-29° C. and relative humidity of about 50-60%. Percent mortality was recorded after 72 hours.
# [4] = test system: Rice Green Leafhopper (Nephotettix virescens); assay: CE.5 Rice green leafhopper, comparative test; details: 3 ppm, after 72 hours, read-out: % mortality in comparison to untreated controls
# Experimental: as §1
# CE.5 Rice Green Leafhopper (Nephotettix virescens)
# as §2, with “(vol:vol),” for “(vol:vol)”
# [5] = test system: Cowpea Aphid (Aphis Craccivora); assay: CE.1 Cowpea aphid, comparative test; details: read-out: % mortality in comparison to untreated controls
# Experimental: as §1
# CE.1 Cowpea Aphid (Aphis Craccivora)
# Potted cowpea plants colonized with approximately 100-150 aphids of various stages were sprayed after the pest population has been recorded. Population reduction was assessed after 24, 72, and 120 hours.
# [6] = test system: Diamond back moth (Plutella xylostella); assay: CE.6 Diamond back moth, contact activity, comparative test; details: 0.1 ppm, contact activity, third-instar larvae sprayed, read-out: % mortality in comparison to untreated controls
# Experimental: as §1
# CE.6 Diamond Back Moth (Plutella xylostella)
# Ten third-instar larvae are sprayed with 1 ml test solution and introduce to untreated leaves held petri dished lined with moist filter paper. Mortality is recorded 24, 72, and 120 hours after treatment.
# [7] = test system: Diamond back moth (Plutella xylostella); assay: B.1 Diamond back moth, cabbage leaf dip; details: foliar, 300 ppm, cabbage leaf dip, 3rd instar larvae, 72 hours after treatment, read-out: mortality in comparison with untreated controls
# Experimental: B.1 Diamond back moth (Plutella xylostella)
# (§3) The active compound was dissolved at the desired concentration in a mixture of 1:1 (vol:vol) distilled water:acetone. Surfactant (Kinetic HV) was added at a rate of 0.01% (vol/vol). The test solution was prepared at the day of use.
# Leaves of cabbage were dipped in test solution and air-dried. Treated leaves were placed in petri dishes lined with moist filter paper and inoculated with ten 3rd instar larvae. Mortality was recorded 72 hours after treatment. Feeding damages were also recorded using a scale of 0-100%.
# [8] = test system: Tobacco Budworm (Heliothis virescens); assay: B.4 Tobacco budworm, insect diet with eggs; details: 120 h, 2500 ppm, egg and larval mortality, 5 days, read-out: mortality in comparison with untreated controls
# Experimental: B.4 Tobacco Budworm (Heliothis virescens)
# For evaluating control of tobacco budworm (Heliothis virescens) the test unit consisted of 96-well-microtiter plates containing an insect diet and 15-25 H. virescens eggs.
# The compounds were formulated using a solution containing 75% v/v water and 25% v/v DMSO. Different concentrations of formulated compounds were sprayed onto the insect diet at 10 μl, using a custom built micro atomizer, at two replications.
# After application, microtiter plates were incubated at about 28±1° C. and about 80±5% relative humidity for 5 days. Egg and larval mortality was then visually assessed.
# [9] = test system: Vetch Aphid (Megoura viciae); assay: B.3 Vetch aphid, broad bean leaf disks; details: foliar, 120 h, 2500 ppm, sprayed leaf disks, 5 days, read-out: mortality in comparison with untreated controls
# Experimental: B.3 Vetch Aphid (Megoura viciae)
# For evaluating control of vetch aphid (Megoura viciae) through contact or systemic means the test unit consisted of 24-well-microtiter plates containing broad bean leaf disks.
# The compounds were formulated using a solution containing 75% v/v water and 25% v/v DMSO. Different concentrations of formulated compounds were sprayed onto the leaf disks at 2.5 μl, using a custom built micro atomizer, at two replications.
# After application, the leaf disks were air-dried and 5-8 adult aphids placed on the leaf disks inside the microtiter plate wells. The aphids were then allowed to suck on the treated leaf disks and incubated at about 23±1° C. and about 50±5% relative humidity for 5 days. Aphid mortality and fecundity was then visually assessed.
# [10] = test system: Orchid Thrips (Dichromothrips Corbetti); assay: B.7 Orchid thrips, floral immersion; details: 300 ppm; adult thrips; 72 hours after treatment; read-out: mortality in comparison with untreated controls
# Experimental: B.7 Orchid Thrips (Dichromothrips Corbetti)
# Dichromothrips corbetti adults used for bioassay were obtained from a colony maintained continuously under laboratory conditions. For testing purposes, the test compound is diluted in a 1:1 mixture of acetone:water (vol:vol), plus Kinetic HV at a rate of 0.01% v/v.
# Thrips potency of each compound was evaluated by using a floral-immersion technique. All petals of individual, intact orchid flowers were dipped into treatment solution and allowed to dry in Petri dishes. Treated petals were placed into individual re-sealable plastic along with about 20 adult thrips. All test arenas were held under continuous light and a temperature of about 28° C. for duration of the assay. After 3 days, the numbers of live thrips were counted on each petal. The percent mortality was recorded 72 hours after treatment.
# [11] = test system: Green Peach Aphid (Myzus persicae); assay: B.2 Green peach aphid, artificial diet, systemic; details: 72 h, 2500 ppm, adult aphids on treated diet, 3 days, read-out: mortality in comparison with untreated controls
# From the text: B.2 Green Peach Aphid (Myzus persicae)
# For evaluating control of green peach aphid (Myzus persicae) through systemic means the test unit consisted of 96-well-microtiter plates containing liquid artificial diet under an artificial mem brane.
# The compounds were formulated using a solution containing 75% v/v water and 25% v/v DMSO. Different concentrations of formulated compounds were pipetted into the aphid diet, using a custom built pipetter, at two replications.
# After application, 5-8 adult aphids were placed on the artificial membrane inside the microtiter plate wells. The aphids were then allowed to suck on the treated aphid diet and incubated at about 23±1° C. and about 50±5% relative humidity for 3 days. Aphid mortality and fecundity was then visually assessed.
# [12] = test system: Boll Weevil (Anthonomus grandis); assay: B.5 Boll weevil, insect diet with eggs; details: 120 h, 2500 ppm, egg and larval mortality, 5 days, read-out: mortality in comparison with untreated controls
# Experimental: B.5 Boll Weevil (Anthonomus grandis)
# For evaluating control of boll weevil (Anthonomus grandis) the test unit consisted of 96-well-microtiter plates containing an insect diet and 5-10 A. grandis eggs.
# The compounds were formulated using a solution containing 75% v/v water and 25% v/v DMSO. Different concentrations of formulated compounds were sprayed onto the insect diet at 5 μl, using a custom built micro atomizer, at two replications.
# After application, microtiter plates were incubated at about 25±1° C. and about 75±5% relative humidity for 5 days. Egg and larval mortality was then visually assessed.
# [13] = test system: Brown Marmorated Stink Bug (Halyomorpha halys); assay: B.13 Brown marmorated stink bug, spray; details: 120 h, 100 ppm, adults, after 5 days, read-out: mortality in comparison with untreated controls
# Experimental: B.13 Brown Marmorated Stink Bug (Halyomorpha halys)
# as §3
# Row peanuts and soybean seeds were placed into microwavable plastic cups and inoculated with five adult stage H. halys. Using a hand atomizer, approximately 1 ml solution is sprayed into each cup, insects and food present. A water source was provided (cotton wick with water) Each treatment is replicated 4-fold. Assay arenas are kept at about 25° C. Percent mortality was recorded after 5 days.
# [14] = test system: Rice Green Leafhopper (Nephotettix virescens); assay: B.8 Rice green leafhopper, sprayed rice seedlings; details: 300 ppm, adults on sprayed rice seedlings, after 72 hours, read-out: mortality in comparison with untreated controls
# Experimental: B.8 Rice Green Leafhopper (Nephotettix virescens)
# as §2, with “in 1:1” for “in 50:50”, “acetone:water (vol:vol),” for “acetone:water (vol:vol)”, “and 0.01%” for “and 0.1%”, “surfactant (Kinetic HV)” for “surfactant (EL 620)”, “with 5-6” for “with 5”, “dried, covered with Mylar” for “dried, placed in”
# [15] = test system: Red Spider Mite (Tetranychus kanzawai); assay: B.9 Red spider mite, sprayed cowpea beans; details: 300 ppm, 72 hours after treatment, read-out: mortality in comparison with untreated controls
# Experimental: B.9 Red Spider Mite (Tetranychus kanzawai)
# The active compound was dissolved at the desired concentration in a mixture of 1:1 (vol:vol) distilled water:acetone. Add surfactant (Kinetic HV) was added at a rate of 0.01% (vol/vol).The test solution was prepared at the day of use.
# Potted cowpea beans of 4-5 days of age were cleaned with tap water and sprayed with 1-2 ml of the test solution using air driven hand atomizer. The treated plants were allowed to air dry and afterwards inoculated with 30 or more mites by clipping a cassava leaf section from rearing population. Treated plants were placed inside a holding room at about 25-27° C. and about 50-60% relative humidity. Percent mortality was assessed 72 hours after treatment.
# [16] = test system: Green Soldier Stink Bug (Nezara viridula); assay: B.11 Green soldier stink bug, sprayed soybean pods; details: 120 h, 300 ppm, late 3rd instar, after 5 days, read-out: mortality in comparison with untreated controls
# Experimental: B.11 Green Soldier Stink Bug (Nezara viridula)
# The active compound was dissolved at the desired concentration in a mixture of 1:1 (vol:vol) distilled water:acetone. Surfactant (Kinetic HV) was added at a rate of 0.01% (vol/vol). The test solution was prepared at the day of use. Soybean pods were placed in glass Petri dishes lined with moist filter paper and inoculated with ten late 3rd instar N. viridula. Using a hand atomizer, approximately 2 ml solution is sprayed into each Petri dish. Assay arenas were kept at about 25° C. Percent mortality was recorded after 5 days.
# [17] = test system: Neotropical Brown Stink Bug (Euschistus heros); assay: B.12 Neotropical brown stink bug, dipped pole bean; details: 120 h, 500 ppm, adults, 5 days, read-out: mortality in comparison with untreated controls
# Experimental: B.12 Neotropical Brown Stink Bug (Euschistus heros)
# For evaluating control of Euschistus heros through contact the test unit consisted of 100 ml disposable plastic beakers with transparent lids.
# The compounds were formulated using a solution containing 50% water and 50% acetone. 50 ml of different concentrations of formulated compounds or mixtures were prepared in a glass petri dish and used for dipping three 6 cm sections of fresh pole bean. Each treatment was replicated eight times.
# After application, the pole bean sections were air-dried and 5 adult E. heros placed in each beaker. The E. heros were then allowed to suck on the treated pole bean sections and incubated at 23±1° C., 50±5% RH for 5 days. E. heros mortality was then visually assessed.
smiles,measurement,setting,value
CCN1CCC(NC(=O)c2ccc(C3=CCC(c4ccc(F)c(Cl)c4)(C(F)(F)F)C3)cc2Cl)C1=O (stereo not drawn) [No. I-9 of WO 2017/016883],mortality at 10 ppm,"[1]; 10 ppm, after 4 days",0%
same,mortality at 10 ppm,"[2]; 10 ppm, 3 days after treatment",25%
same,mortality at 10 ppm,"[3]; 10 ppm, after 72 hours",25%
same,mortality at 3 ppm,[4],0%
same,mortality at 10 ppm,"[5]; 10 ppm, sprayed cowpea plants",25%
CN1C(=O)CC(NC(=O)c2ccc(C3=NOC(c4ccc(F)c(Cl)c4)(C(F)(F)F)C3)c3c2CCC3)C1=O (stereo not drawn) [Compound I-1-11],mortality at 0.1 ppm,[6],75%
same,mortality at 300 ppm,[7],> 75%
same,mortality at 2500 ppm,[8],> 75%
same,mortality at 2500 ppm,[9],> 75%
same,mortality at 300 ppm,[10],> 75%
same,mortality at 2500 ppm,[11],> 75%
same,mortality at 2500 ppm,[12],> 75%
same,mortality at 100 ppm,[13],> 75%
same,mortality at 300 ppm,[14],> 75%
same,mortality at 300 ppm,[15],> 75%
same,mortality at 300 ppm,[16],> 75%
same,mortality at 500 ppm,[17],> 75%
"Cc1cc(C2=NOC(c3cc(Cl)cc(Cl)c3)(C(F)(F)F)C2)ccc1C(=O)NC1CCN(CC(F)(F)F)C1=O (stereo not drawn) [No. 5-405 of US 20070066617, reference compound]",mortality at 10 ppm,[1],0%
same,mortality at 10 ppm,[2],25%
same,mortality at 10 ppm,[3]; 72 h,0%
same,mortality at 10 ppm,[5],25%
